Source: patent publication US12492163B2, “9H-fluorene derivatives or their pharmaceutically acceptable salts” (priority 2020, dated 2025)

Legend:
Albino Swiss CD-1 mice [1] = assay: Rotarod test; type: in vivo
Protocol: (§1) The research was conducted at the Department of Pharmacodynamics, Faculty of Pharmacy, Jagiellonian University in Krakow. All procedures were approved by the 1st and 2nd Local Ethics Committee for Animal Experiments in Krakow (consent no. 53/2017 and 250/2019) and were performed in accordance with the applicable European Union regulation (86/609/EEC). Males of two different strains of domestic mice (Mus musculus) were used in the study: Albino Swiss CD-1 (body weight approx. 20-24 g, age approx. 6 weeks) and C57BL/6J mice (body weight approx. 18-22 g, age approx. 6 weeks). The CD-1 strain was used for the passive avoidance, spontaneous mobility and rotating rod tests, while the C57BL/6J mice were used for the Morris water maze and the Barnes' maze. The animals were kept in standard, appropriately sized cages, divided into groups with a maximum of 10 animals. The animals in the study groups in the learning phase were intraperitoneally administered the test compound 1 h before the start of the experiments (doses in the preliminary test, i.e. in the passive avoidance test: 10, 30 and 60 mg/kg), and 30 minutes later, 1 mg/kg of scopolamine subcutaneously. Two control groups were used in the tests to assess the procognitive activity of JT-3—one of them received saline and the other saline and scopolamine.
Before the experiment, the mice were adequately trained (3 days, rod revolving at 18 rpm). The device consists of a rod set in a horizontal position. It is 75 cm long, divided into 4 tracks, and is set in rotation by an electric motor. This metal rod is placed 50 cm above the table to discourage mice from jumping off it. On the day of the actual test, 24 h after the animals' last training, the mice were placed sequentially on the bar for 60 s (for each rotation speed). The rod rotation speed was set to 6, 18, and 24 rpm, respectively. The inability of the mice to stay on the rod for 60 s was considered a disorder of motor coordination.

mGAT4 = mGAT4 (Mus musculus (Mouse), UniProt P31650); assay: [3H]GABA uptake inhibition, mGAT4 in HEK293 cells; type: cell-based; settings: GABA reuptake
Protocol: Exemplary compounds according to the invention were screened at the Ludwig-Maximilian University of Munich to determine the inhibitory ability towards four mouse GAT transporters (mGAT1-mGAT4). […] The biological material was stably transfected human embryonic kidney HEK293 cells, expressing genes to the appropriate transporters. The generated radioactivity was measured with a liquid scintillation counter. […] These determinations were made according to the procedure described in detail in A. Kragler, G. Höfner, K. T. Wanner, Novel parent structures for inhibitors of the murine GABA transporters mGAT3 and mGAT4, Eur. J. Pharmacol. 519 (2005) 43-47.

Albino Swiss CD-1 mice [2] = assay: Spontaneous motor activity test; type: in vivo
Protocol: as §1, with “The animals in the study groups in the learning phase were intraperitoneally administered the test compound 1 h before the start of the experiments (doses in the preliminary test, i.e. in the passive avoidance test: 10, 30 and 60 mg/kg), and 30 minutes later, 1 mg/kg of scopolamine subcutaneously. Two control groups were used in the tests to assess the procognitive activity of JT-3—one of them received saline and the other saline and scopolamine.” left out
In this test, the effect of compound JT-3 on the spontaneous motor activity of mice was investigated. […] The apparatus recorded the number of horizontal and vertical movements during the 60-minute test. The mice were put into the actometer, the measurement lasted for 1 hour, during which the camera counted the number of times the light beams were crossed, i.e. motor activity. […]

[3] = target: human plasma butyrylcholinesterase (hBuChE) (Homo sapiens (Human), UniProt P06276); assay: Ellman's test, inhibition of human plasma butyrylcholinesterase; type: biochemical
How it was run: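 Modified Ellman assay: compound preincubated 5 min with enzyme and DTNB in 0.1 M phosphate buffer pH 8.0 at 25° C (eqBuChE) or 36° C (hBuChE), then butyrylthiocholine added; absorbance change at 412 nm read after 5 min. Screening at 10 μM (eqBuChE) or 1 μM (hBuChE); IC50 by non-linear regression, triplicates.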

Albino Swiss CD-1 mice [4] = assay: Passive avoidance task (scopolamine-induced memory disorders); type: in vivo, Mus musculus; settings: scopolamine 1 mg/kg s.c.
Protocol: as §1
The test assesses contextual memory. The apparatus consists of two chambers (white: 26 cm×26 cm×34 cm; dark: 13 cm×7.5 cm×7.5 cm) separated by a door. The test consists of a two-day procedure. On the first day (acquisition phase), test compound or saline was administered to the animals 1 h prior to testing (i.p. administration). In order to induce memory disorders, scopolamine (1 mg/kg, s.c.) was also administered after 30 min. On the first day of testing, the mouse was placed in the white compartment. […] The latency of entry into the dark chamber was measured. […] After 30 s the door between the compartments was opened and, similarly to the acquisition phase, the latency time of entering the dark compartment was measured. […]

mGAT4, sequence (P31650 whole entry): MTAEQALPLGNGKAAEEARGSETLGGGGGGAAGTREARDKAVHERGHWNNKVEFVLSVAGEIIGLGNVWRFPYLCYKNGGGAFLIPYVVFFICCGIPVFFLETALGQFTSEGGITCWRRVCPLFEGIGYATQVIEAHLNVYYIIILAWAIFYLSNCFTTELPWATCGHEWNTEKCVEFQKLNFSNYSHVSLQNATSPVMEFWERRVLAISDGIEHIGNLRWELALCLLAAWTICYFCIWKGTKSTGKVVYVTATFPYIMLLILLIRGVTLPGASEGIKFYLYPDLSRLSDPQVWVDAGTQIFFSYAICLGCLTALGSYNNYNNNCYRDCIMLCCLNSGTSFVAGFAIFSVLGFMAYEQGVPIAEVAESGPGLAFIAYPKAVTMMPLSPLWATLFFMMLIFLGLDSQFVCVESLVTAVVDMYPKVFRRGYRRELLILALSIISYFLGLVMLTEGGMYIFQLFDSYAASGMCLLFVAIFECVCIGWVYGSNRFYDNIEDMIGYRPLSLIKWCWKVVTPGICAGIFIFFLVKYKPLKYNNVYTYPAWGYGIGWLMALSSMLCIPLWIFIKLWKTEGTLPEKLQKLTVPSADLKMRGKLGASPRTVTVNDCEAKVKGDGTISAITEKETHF
human plasma butyrylcholinesterase (hBuChE), sequence (P06276 29-602): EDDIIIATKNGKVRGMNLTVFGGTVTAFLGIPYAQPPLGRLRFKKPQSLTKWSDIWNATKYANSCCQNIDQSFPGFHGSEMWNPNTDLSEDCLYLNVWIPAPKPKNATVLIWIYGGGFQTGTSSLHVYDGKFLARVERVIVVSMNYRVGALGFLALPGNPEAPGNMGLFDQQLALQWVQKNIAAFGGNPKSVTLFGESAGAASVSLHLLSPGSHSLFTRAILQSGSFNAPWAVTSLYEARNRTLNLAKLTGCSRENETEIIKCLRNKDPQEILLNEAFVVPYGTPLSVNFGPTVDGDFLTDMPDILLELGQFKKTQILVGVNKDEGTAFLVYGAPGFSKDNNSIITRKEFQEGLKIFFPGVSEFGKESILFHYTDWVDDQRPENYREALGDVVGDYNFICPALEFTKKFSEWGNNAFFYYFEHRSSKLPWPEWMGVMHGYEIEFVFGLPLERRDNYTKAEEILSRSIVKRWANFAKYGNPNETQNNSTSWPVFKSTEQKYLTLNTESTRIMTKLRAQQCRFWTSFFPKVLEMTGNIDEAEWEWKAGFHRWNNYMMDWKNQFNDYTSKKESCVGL

For O[C@H](CNCC1CC1)[C@H](Cc1ccccc1)NC1c2ccccc2-c2ccccc21 [JT-3, (2R,3S)-3-((9H-fluoren-9-yl)amino)-1-((cyclopropylmethyl)amino)-4-phenylbutan-2-ol], which “influence on motor coordination” value (Albino Swiss CD-1 mice [1]; 10 mg/kg) is on record?
The value was “No negative influence”.

And the “time kept on the bar” value (Albino Swiss CD-1 mice [1]; 10 mg/kg and 30 mg/kg, speeds of 6, 18, and 24 rpm, all animals)?
The value was 60 s.

And the “influence on motor coordination” value (Albino Swiss CD-1 mice [1]; 30 mg/kg)?
Its value is “No negative influence”.

And the “pIC50 (+/−SEM) mGAT4” value (mGAT4)?
Its value is 5.11 +/− 0.02.

And the “effect on spontaneous motor activity (number of movements in 60 min)” value (Albino Swiss CD-1 mice [2]; 10 mg/kg i.p.)?
Its value is “Neither of these doses affected the motility of the animals”.

And the “effect on spontaneous motor activity (number of movements in 60 min)” value (Albino Swiss CD-1 mice [2]; 30 mg/kg i.p.)?
Its value is “Neither of these doses affected the motility of the animals”.

And the IC50 [3]?
The IC50 was 207 nM.

And the “latency of entry into the dark compartment, recall phase (day 2) vs scopolamine control” value (shortened to “latency … vs scopolamine control”) (Albino Swiss CD-1 mice [4]; 10 mg/kg i.p., p<0.01)?
Its value is “statistically significant difference”.

What about the “latency … vs scopolamine control” value (Albino Swiss CD-1 mice [4]; 30 mg/kg i.p.) of the same molecule?
The value was “not active”.

What about the “latency … vs scopolamine control” value (Albino Swiss CD-1 mice [4]; 60 mg/kg i.p.) of the same molecule?
The value was “not active”.
